Experimental data published in paper PMC4197335, “Cancer-Selective Targeting of the NF-κB Survival Pathway with GADD45β/MKK7 Inhibitors” (Cancer Cell, 2014).
Where two headings read alike, the source gives them in different places. Where a SMILES comes first, the peptide text is derived from it. [ ]: non-standard residue; d: D form. The star is where a group is joined. Cbz = O=C(OCc1ccccc1)*

Tests used:
aqueous solubility = assay type: physicochemical
GADD45β/MKK7 complex = biological target: T1, GADD45β/MKK7 complex (Homo sapiens, UniProt O14733); experiment: ELISA GADD45β/MKK7 competition assay; assay type: binding; conditions: for inhibition at 0.042 µM: peptide at 42 nM
T1 construct: Full-length human (h)MKK7 was expressed as a protein fused to an N-terminal GST tag (GST-MKK7); made in house
T1 sequence (O14733 1-419): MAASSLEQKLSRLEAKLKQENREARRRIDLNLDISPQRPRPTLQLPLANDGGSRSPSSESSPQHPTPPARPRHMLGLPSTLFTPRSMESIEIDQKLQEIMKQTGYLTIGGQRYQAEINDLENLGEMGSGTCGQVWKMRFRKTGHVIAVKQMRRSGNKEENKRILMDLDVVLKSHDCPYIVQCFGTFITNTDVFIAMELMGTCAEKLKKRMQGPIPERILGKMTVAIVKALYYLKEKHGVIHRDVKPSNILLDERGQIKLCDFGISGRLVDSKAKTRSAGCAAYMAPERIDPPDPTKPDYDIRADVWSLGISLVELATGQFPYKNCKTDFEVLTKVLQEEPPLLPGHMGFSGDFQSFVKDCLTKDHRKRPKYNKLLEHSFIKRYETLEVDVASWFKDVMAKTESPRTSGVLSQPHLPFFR
Text: Additional details are provided in Supplemental Experimental Procedures.
(1:1,000) and the HRP chromogenic substrate, o -phenylenediamine (OPD). GST -coated wells wer e […]
The ELISA competition screen used f or the isolation of antagonists of the GADD45β /MKK7 […]
The library deconvolution strategy used for this screen was described previously […]
General information about this type of screens can be found elsewhere […]
Values were expressed as the percentage of inhibition of His6-hGADD45β binding to GST-hMKK7 relative to the binding measured in the absence of […]
Dose-response, ELISA GADD45β /MKK7 competition assays were carried out under similar […]
As part of the SAR analysis and lead optimization process, where appropriate, competitors were tested at a concentration up to 100 nM. In order to determine their stability in biolog ical f luids , peptides were incubated at the concentration of 10 µM in […]
calculated using at least 7 concentrations of peptide and def ined as the mean concentration of peptide […]
the absence of competitor. W here indicated, values were expressed as the percentage of inhibition of His 6 -hGADD45β binding to GST-hMKK7 relative to the binding measured in the absence of competitor.
GST was used as a control in all the experiments. […]
tetrapeptide used as negative control in some of the ELISA and cellular assays was as f ollows: z -DNC, z-T yr -Asp-His-Gln-NH 2 . […]

U266 MM cells = conditions: read-out: IC50 (U266 cells); Table S3; day 6; [3H]thymidine incorporation or trypan blue exclusion
[1] = Table S4, read-out: IC50s (ELISA)
[2] = Table S3, peptide at 10 nM, read-out: % inhibition (ELISA)
[3] = Table S3, read-out: IC50 (ELISA)
[4] = Table S4, values marked (#), read-out: % inhibition of (ELISA)
[5] = read-out: % inhibition of (ELISA)

| inhibition at 0.01 µM (GADD45β/MKK7 complex; [2]) [%] | IC50 (GADD45β/MKK7 complex; [3]) [nM] | SMILES | IC50 (U266 MM cells) [nM] | other results |
| --- | --- | --- | --- | --- |
|  |  | CC(=O)N[C@@H](Cc1c[nH]c2ccccc12)C(=O)N[C@@H](CC(=O)O)C(=O)N[C@@H](CCCNC(=N)N)C(=O)N[C@@H](Cc1c[nH]c2ccccc12)C(N)=O [Ac-WDRW-NH2] (Ac-WDRW-NH2) |  | aqueous solubility (aqueous solubility): low; inhibition at 0.042 µM (GADD45β/MKK7 complex; Table S2, read-out: % inhibition (ELISA)): 93%; IC50 (GADD45β/MKK7 complex; [1]): < 42 nM |
| 6 | > 10 | CC(=O)N[C@H](Cc1ccc(O)cc1)C(=O)N[C@H](CCC(=O)O)C(=O)N[C@H](CCCNC(=N)N)C(=O)N[C@H](Cc1ccccc1)C(=O)N[C@H](CCCCNC(=O)OCc1ccccc1)C(N)=O [Ac-YERFK(εZ)-NH2] (Ac-[dY][dE][dR][dF][dK](Cbz)-NH2) |  |  |
|  |  | CC(=O)N[C@H](Cc1ccc(O)cc1)C(=O)N[C@H](CCC(=O)O)C(=O)N[C@H](CCCNC(=N)N)C(=O)N1CCC[C@@H]1C(N)=O [Ac-YERP-NH2] (Ac-[dY][dE][dR][dP]-NH2) |  | inhibition at 0.042 µM (GADD45β/MKK7 complex; [4]): 0% |
|  |  | CC(=O)N[C@H](Cc1ccc(O)cc1)C(=O)N1CCC[C@@H]1C(=O)N[C@H](CCCNC(=N)N)C(=O)N[C@H](Cc1ccccc1)C(N)=O [Ac-YPRF-NH2] (Ac-[dY][dP][dR][dF]-NH2) |  | inhibition at 0.042 µM (GADD45β/MKK7 complex; [4]): 13% |
|  |  | NC(=O)[C@@H](Cc1ccccc1)NC(=O)[C@@H](Cc1c[nH]cn1)NC(=O)[C@@H](CC(=O)O)NC(=O)[C@@H](Cc1ccc(O)cc1)NC(=O)c1ccccc1 [Benzoyl-YDHF-NH2] | > 10000 | IC50 (GADD45β/MKK7 complex): > 10 nM; inhibition at 0.01 µM (GADD45β/MKK7 complex; read-out: % inhibition (ELISA)): 0%; inhibition at 0.01 µM (GADD45β/MKK7 complex; [5]): 1% |
|  |  | NC(=O)CC[C@@H](NC(=O)[C@@H](Cc1c[nH]cn1)NC(=O)[C@@H](CC(=O)O)NC(=O)[C@@H](Cc1ccc(O)cc1)NC(=O)c1ccccc1)C(N)=O [Benzoyl-YDHQ-NH2] | > 10000 | IC50 (GADD45β/MKK7 complex): > 10 nM; inhibition at 0.01 µM (GADD45β/MKK7 complex; read-out: % inhibition (ELISA)): 1%; inhibition at 0.01 µM (GADD45β/MKK7 complex; [5]): 0% |
|  |  | N=C(N)NCCC[C@@H](NC(=O)[C@@H](CCC(=O)O)NC(=O)[C@@H](Cc1ccc(O)cc1)NC(=O)c1ccccc1)C(=O)N[C@H](Cc1ccccc1)C(N)=O [Benzoyl-YERF-NH2] | > 10000 | IC50 (GADD45β/MKK7 complex): > 10 nM; inhibition at 0.01 µM (GADD45β/MKK7 complex; read-out: % inhibition (ELISA)): 24% |
| 19 |  | NC(=O)CC[C@@H](NC(=O)[C@@H](Cc1c[nH]cn1)NC(=O)[C@@H](CC(=O)O)NC(=O)[C@@H](Cc1ccc(O)cc1)NC(=O)OCC1c2ccccc2-c2ccccc21)C(N)=O [Fmoc-YDFQ-NH2] |  |  |
| 58 | < 10 | NC(=O)[C@@H](Cc1ccccc1)NC(=O)[C@@H](Cc1c[nH]cn1)NC(=O)[C@@H](CC(=O)O)NC(=O)[C@@H](Cc1ccc(O)cc1)NC(=O)OCC1c2ccccc2-c2ccccc21 [Fmoc-YDHF-NH2] |  |  |
| 60 | < 10 | N=C(N)NCCC[C@@H](NC(=O)[C@@H](CCC(=O)O)NC(=O)[C@@H](Cc1ccc(O)cc1)NC(=O)OCC1c2ccccc2-c2ccccc21)C(=O)N[C@H](Cc1ccccc1)C(N)=O [Fmoc-YERF-NH2] |  |  |
|  |  | NC(=O)[C@@H](Cc1ccccc1)NC(=O)[C@@H](Cc1c[nH]cn1)NC(=O)[C@H](N)Cc1ccc(O)cc1 [H-YHF-NH2] |  | IC50 (GADD45β/MKK7 complex; [1]): 0.65 nM |
|  |  | N=C(N)NCCC[C@@H](NC(=O)[C@H](N)Cc1ccc(O)cc1)C(=O)N[C@H](Cc1ccc(O)cc1)C(N)=O [H-YRY-NH2] |  | IC50 (GADD45β/MKK7 complex; [1]): 0.75 nM |

| SMILES | inhibition at 0.01 µM (GADD45β/MKK7 complex; [2]) [%] | IC50 (GADD45β/MKK7 complex; [3]) [nM] | IC50 (U266 MM cells) [nM] | other results |
| --- | --- | --- | --- | --- |
| CCCCCCCCCCCCCC(=O)N[C@H](Cc1ccc(O)cc1)C(=O)N[C@H](CC(=O)O)C(=O)N[C@H](Cc1c[nH]cn1)C(=O)N[C@H](Cc1ccccc1)C(N)=O [Myr-YDHF-NH2] | 26 | > 10 | > 10000 |  |
| CCCCCCCCCCCCCC(=O)N[C@H](Cc1ccc(O)cc1)C(=O)N[C@H](CC(=O)O)C(=O)N[C@H](Cc1c[nH]cn1)C(=O)N[C@H](CCC(N)=O)C(N)=O [Myr-YDHQ-NH2] | 28 | > 10 | > 10000 |  |
